# Values joined by “and” are separate entries in the source; they are usually repeats but may differ in a detail not shown here. Equal entries are not always repeated.
# Key:
# [1] = tested on: COS 7; assay: Labelling (staining) of cells with labelled molecules; assay type: cell-based
# Source text: (§1) As shown in the examples, a compound for use according to the invention, wherein the compound comprises a label moiety, is contacted with a cell. As labelling is preferably done with viable or potentially viable cells, the cells are typically present in an aqueous solution, which is preferably buffered and/or contains nutrients, e.g. the cells are suspended in PBS. The labeled compound for use according to the invention may be added to the cells, e.g. in form of a solution, e.g. as aqueous solution by methods known in the art, as pipetting.
# [2] = tested on: Hela; assay: as above; assay type: cell-based
# Source text: as §1
# [3] = tested on: MDA-MB468; assay: as above; assay type: cell-based
# Source text: as §1
# [4] = tested on: CHO; assay: as above; assay type: cell-based
# Source text: as §1
# [5] = tested on: Jurkats; assay: as above; assay type: cell-based
# Source text: as §1
# [6] = tested on: U937; assay: as above; assay type: cell-based
# Source text: as §1
# [7] = tested on: NIH 3T3; assay: as above; assay type: cell-based
# Source text: as §1
# [8] = tested on: WBCs; assay: as above; assay type: cell-based
# Source text: as §1
# [9] = tested on: Epithelial cells; assay: as above; assay type: cell-based
# Source text: as §1
# [10] = tested on: WBCs; assay: Recovery rate of cells after immobilization on streptavidin (SA) plate; assay type: cell-based; settings: WBCs, 100 nmol/10e6 cells
# Method: X=hydrophobic moiety, […]=fluorescein In the following experiment, the recovery rate of cells was determined.
# [11] = tested on: WBC; assay: WBC recovery rate after centrifugation (stabilization of cells); assay type: cell-based, human; settings: Centrifugation 10 min, 300×g
# Method: (§2) Centrifugation characteristics: 10 min, 300×g.
# as §2
# The respective left, middle and right columns per assay represent different Experimenters 1, 2 and 3. […] Centrifugation characteristics: 10 min, 300×g. Molecule: Cholesteryl-TEG-Cholesteryl-TEG-(SpacerC18)7-Fluos-Biotin-TEG.
# (§3) Following molecules were tested: 1234: 5′-(Cholesteryl-TEG)2-Spacer C18-dT-Biotin-TEG-3′; 1248: 3′-(Cholesteryl-TEG)2-PEG2000-Fluos-Biotin-TEG-5′ INVERS; 1254: 3′-(Cholesteryl-TEG)2-SpacerC18-Fluos-Biotin-TEG-5′ INVERS; 1255: 3′-(Myristic acid)2-PEG2000-dT-Biotin-TEG-5′ INVERS. […] Centrifugation characteristics: 20 min, 300×g. Respective left column: 10 min incubation with molecule. Respective middle column: 1 h min incubation with molecule. Respective right column: 2 h incubation with molecule.
# Following molecules were tested: 1255: 3′-(Myristic acid)2-PEG2000-dT-Biotin-TEG-5′ INVERS; 1234: 5′-(Cholesteryl-TEG)2-Spacer C18-dT-Biotin-TEG-3′; 1248: 3′-(Cholesteryl-TEG)2-PEG2000-Fluos-Biotin-TEG-5′ INVERS; 1254: 3′-(Cholesteryl-TEG)2-SpacerC18-Fluos-Biotin-TEG-5′ INVERS. […] Centrifugation characteristics: 20 min, 500×g. Respective left column: 10 min incubation with molecule. Respective middle column: 1 h min incubation with molecule. Respective right column: 3 h incubation with molecule.
# as §3, with “tested: 1255: 3′-(Myristic acid)2-PEG2000-dT-Biotin-TEG-5′ INVERS;” for “tested:”, “3′-(Cholesteryl-TEG)2-SpacerC18-Fluos-Biotin-TEG-5′” for “3′-(Cholesteryl-TEG)2-SpacerC18-Fluos-Biotin-TEG-5′ INVERS; 1255: 3′-(Myristic acid)2-PEG2000-dT-Biotin-TEG-5′”, “1000×g.” for “300×g.”
# Stabilization is typically determined on a population of cells, e.g. 2, 10, 100 or more cells, and the respective mean viability of the cell populations are compared. […] Viability may be determined by determining cell morphology, cell viability and/or cell recovery. Methods for determining cell morphology, cell viability and cell recovery are known in the art. […] For determining cell morphology, visual inspection by microscopy may be performed. For determining cell viability, a cell viability test using WST-1 proliferation kit (RAS) may be performed.
# [12] = tested on: WBC; settings: Example 5 B; centrifugation 10 min, 300×g
compound,measurement,setting,value
CCCCCCCCCCCCCCCCCCCCCC[N+]1=C(/C=C/C=C2/N(CCCCCCCCCCCCCC)c3ccccc3C2(C)C)C(C)(C)c2ccccc21.[I-] [PKH26],staining of cells by labelled molecule,[1],✓
same,staining of cells by labelled molecule,[2],✓*
same,staining of cells by labelled molecule,[3],✓
same,staining of cells by labelled molecule,[4],✓
same,staining of cells by labelled molecule,[5],✓
same,staining of cells by labelled molecule,[6],✓
same,staining of cells by labelled molecule,[7],✓
same,staining of cells by labelled molecule,[8],not stained) ✓
same,staining of cells by labelled molecule,[9],✓ not all
"CCCCCCCCCCCCC/C=C/[C@@H](O)[C@H](COP(=O)([O-])OCC[N+](C)(C)C)NC(=O)CCCCc1ccc2n1[B-](F)(F)[N+]1=C(C)C=C(C)C1=C2 [Sphingomyelin, N-(4,4-difluoro-5,7-dimethyl-4-bora-3a,4a-diaza-s-indacene-3-pentanoyl)sphingosyl phosphocholine]",staining of cells by labelled molecule,[2],✓
same,staining of cells by labelled molecule,[4],x very weak
same,staining of cells by labelled molecule,[8],(x)- very bad
same,staining of cells by labelled molecule,[9],✓
"CCCCC/C=C\C/C=C\CCCCCCCCN1C(=CC=CC2=[N+](CCCCCCCC/C=C\C/C=C\CCCCC)c3ccccc3C2(C)C)C(C)(C)c2ccccc21.[O-][Cl+3]([O-])([O-])[O-] [Linol, 1,1′-dilinoleyl-3,3,3′,3′-tetramethylindocarbocyanine perchlorate]",staining of cells by labelled molecule,[1],✓
same,staining of cells by labelled molecule,[2],✓
same,staining of cells by labelled molecule,[3],✓
same,staining of cells by labelled molecule,[4],✓
same,staining of cells by labelled molecule,[5],✓
same,staining of cells by labelled molecule,[6],✓
same,staining of cells by labelled molecule,[7],✓
same,staining of cells by labelled molecule,[8],20-50 ms) ✓
same,staining of cells by labelled molecule,[9],✓
Biotin-PEG-Lys-(C18)2,Recovery Rate,[10]; listed as Biotin-PEG-Lysin-(C18)2,83.9% and 75.0% and 66.0%
same,Recovery Rate,[10]; may be to due 1.5-2 h exposure of plate,33.0%
same,WBC recovery rate after centrifugation: dependence on molecule concentration,[11],"The higher the molecule concentration, the higher the cell recovery rate after centrifugation"
same,time within which cell immobilization is enabled,[12],≤ 3.5 h
5′-CholesterylTEG-CholesterylTEG-PEG2000-Fluos-3′ [BMO 29.891133],staining of cells by labelled molecule,[1],✓
same,staining of cells by labelled molecule,[2],✓
same,staining of cells by labelled molecule,[3],✓
same,staining of cells by labelled molecule,[4],✓
same,staining of cells by labelled molecule,[5],✓
same,staining of cells by labelled molecule,[6],✓
same,staining of cells by labelled molecule,[7],✓
same,staining of cells by labelled molecule,[8],50-200 ms) ✓
same,staining of cells by labelled molecule,[9],✓
"CCCCCCCCCCCCCCCCCCN1C(=CC=CC2=[N+](CCCCCCCCCCCCCCCCCC)c3ccccc3C2(C)C)C(C)(C)c2ccccc21.[O-][Cl+3]([O-])([O-])[O-] [1,1′-Dioctadecyl-3,3,3′,3′-tetramethylindocarbocyanin perchlorate]",staining of cells by labelled molecule,[1],✓
same,staining of cells by labelled molecule,[2],✓
same,staining of cells by labelled molecule,[3],✓
same,staining of cells by labelled molecule,[4],✓
same,staining of cells by labelled molecule,[5],✓
same,staining of cells by labelled molecule,[6],✓
same,staining of cells by labelled molecule,[7],✓*
same,staining of cells by labelled molecule,[8],✓ not all
same,staining of cells by labelled molecule,[9],✓
"CCCCCCCCCCCCCCCC(=O)OC[C@H](COP(=O)(O)OCCNC(=O)CCc1ccc2n1[B-](F)(F)[N+]1=C(C)C=C(C)C1=C2)OC(=O)CCCCCCCCCCCCCCC.CCN(CC)CC [Phosphatidylethanolamine, N-(4,4-difluoro-5,7-dimethyl-4-bora-3a,4a-diaza-s-indacene-3-propionyl)-1,2-dihexadecanoyl-sn-glycero-3-phosphoethanolamine, triethylammonium salt]",staining of cells by labelled molecule,[2],x/✓ very weak

# Reference: patent publication US11021472B2, “Use of compounds comprising two or more hydrophobic domains and a hydrophilic domain comprising PEG moieties for stabilization of a cell” (Roche Diagnostics Operations, Inc., priority 2013, dated 2021)
